{"source": "patent US20250283040A1", "about": "“Methods to Expand a T Regulatory Cell Master Cell Bank” (The Trustees of the University of Pennsylvania, priority 2010, published 2025)", "type_in_all_cases": "cell-based, human", "key": {"PB nTreg [1]": {"system": "PB nTreg", "test": "Ex vivo expansion of PB nTreg cultures (fold expansion)", "conditions": "sort-purified nTregs, first stimulation with KT64/86 cells; Rapamycin 109 nM", "experimental": "Experiments were designed to expand Tregs isolated from adult peripheral blood. Tregs were isolated by a two step procedure in which CD4 cells were first enriched by depleting CD8, −14, and −19+ cells with GMP-grade mAb coated microbeads, followed by positive selection of CD25++ cells using GMP-grade anti-CD25 microbeads (either 75μl/2×10^8 cells, Miltenyi). Treg were subsequently expanded in vitro by repeated stimulation with CD3/28 beads or KT64/86 loaded with anti-CD3 antibody. In addition, the expansion scheme involved expanding Tregs in the presence of Rapamycin (109 nM) and restimulation based upon cell size.\nFor all experiments, non-mobilized peripheral blood Leukapheresis products were collected from normal adult volunteers using FDA approved/cleared apheresis instruments. Written informed consent was obtained from all subjects. nTreg were purified using GMP magnetic beads or by sorting. […]\n(§1) Where indicated, Rapamycin (Rapammune, Wyeth-Ayerst) at 109 nM was added on day 0 and with subsequent media supplementation. Cell size and viability were determined by ViCell (Beckman Coulter)."}, "PB nTreg [2]": {"system": "PB nTreg", "test": "Cell size and viability of nTreg cultures by ViCell", "conditions": "sort-purified nTregs stimulated with KT64/86 cells; Rapamycin 109 nM", "experimental": "as §1"}, "nTreg cultures": {"system": "nTreg cultures", "test": "Intracellular cytokine staining after PMA/Ionomycin", "experimental": "Fresh or frozen nTreg were cultured in supplemented X-Vivo 15 for 4 hours±PMA ([…]) and Ionomycin (1 μg/ml) in the presence of Brefeldin A (100 ng/ml) (all Sigma). Frozen/thawed samples were cultured for 1 hour at 37° C. prior to re-stimulation. Cells were then harvested and stained for CD4, 25, Foxp3 and cytokine (IL-2, IL-4, IL-17, and IFNγ) or Granzyme B using the standard Foxp3 intracellular staining kit."}, "[3]": {"conditions": "sort-purified nTreg re-stimulated with KT64/86"}}, "note": "Where “and” joins values, the source holds several entries; their conditions need not be identical. Equal entries are not always repeated.", "data": [{"molecule": "CO[C@H]1C[C@@H]2CC[C@@H](C)[C@@](O)(O2)C(=O)C(=O)N2CCCC[C@H]2C(=O)O[C@H]([C@H](C)C[C@@H]2CC[C@@H](O)[C@H](OC)C2)CC(=O)[C@H](C)/C=C(\\C)[C@@H](O)[C@@H](OC)C(=O)[C@H](C)C[C@H](C)/C=C/C=C/C=C/1C", "note": "[Rapamycin]", "values": [{"measurement": "Expansion with Rapamycin", "setting": "PB nTreg [1]", "value": 55, "unit": "fold"}, {"measurement": "Peak cell size with Rapamycin", "setting": "PB nTreg [2]", "value": 9.9, "unit": "µm"}, {"measurement": "% of PMA/ionomycin stimulated cells secreting IL-2, with Rapamycin", "setting": "nTreg cultures; [3]", "value": "≤ 3", "unit": "%"}, {"measurement": "% of cells secreting IFNγ, with Rapamycin", "setting": "nTreg cultures; [3]", "value": "≤ 2", "unit": "%"}, {"measurement": "% IL-4+ cells, start of the increase with successive re-stimulations", "setting": "nTreg cultures; with Rapamycin", "value": "8±2", "unit": "%"}, {"measurement": "% IL-4+ cells after the last (fourth) re-stimulation", "setting": "nTreg cultures; with Rapamycin, Foxp3+ and −", "value": "58±17% and > 50%"}]}]}
